Assay results: the supplement of paper PMC10307832

Assays:
Assay in all cases: relative viability (nuclei count vs DMSO), 5 days (fraction); higher = more cells survive
[1] = test system: NCI-H1793
Method in brief: (§1)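 Lung cancer cell lines, seeded in 1536-well plates, were treated the following day by pin tool with a single drug or with five library-drug doses (not always all listed) in √10 steps on top of a fixed anchor-drug dose. Cells were fixed and nuclei stained in one step after 5 days, and nuclei were counted. Relative viability is the nuclei count for treated wells divided by that for vehicle wells, reported as medians of duplicate plates.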

[2] = test system: LC-2-ad
Method in brief: as §1

[3] = test system: CAL-12T
Method in brief: as §1

[4] = test system: NCI-H460
Method in brief: as §1

[5] = test system: LOU-NH91
Method in brief: as §1

[6] = test system: UMC-11
Method in brief: as §1

[7] = test system: ABC-1
Method in brief: as §1

[8] = test system: NCI-H3122
Method in brief: as §1

[9] = test system: NCI-H1651
Method in brief: as §1

[10] = test system: NCI-H1944
Method in brief: as §1

[11] = test system: HCC-78
Method in brief: as §1

[12] = test system: NCI-H2405
Method in brief: as §1

[13] = test system: HCC-366
Method in brief: as §1

[14] = test system: NCI-H2228
Method in brief: as §1

[15] = test system: LU99A
Method in brief: as §1

[16] = test system: NCI-H1395
Method in brief: as §1

[17] = test system: PC-3 [JPC-3]
Method in brief: as §1

[18] = test system: NCI-H1755
Method in brief: as §1

[19] = test system: NCI-H2087
Method in brief: as §1

[20] = test system: RERF-LC-KJ
Method in brief: as §1

## COc1cc2nccc(Oc3ccc(NC(=O)Nc4cc(C)on4)c(Cl)c3)c2cc1OC [Tivozanib] + C[C@]1(O)C[C@@H](c2nc(-c3ccc4ccc(-c5ccccc5)nc4c3)c3c(N)nccn32)C1 [Linsitinib] (partner 1 µM)
[1]; first compound 0.005 µM
  relative viability: 0.778
[1]; first compound 0.01581 µM
  relative viability: 0.954
[1]; first compound 0.05 µM
  relative viability: 0.774
[1]; first compound 0.5 µM
  relative viability: 1.19
[2]; first compound 0.005 µM
  relative viability: 0.86
[2]; first compound 0.01581 µM
  relative viability: 0.791
[2]; first compound 0.05 µM
  relative viability: 0.73
[2]; first compound 0.1581 µM
  relative viability: 0.526
[2]; first compound 0.5 µM
  relative viability: 0.616
[3]; first compound 0.005 µM
  relative viability: 0.761
[3]; first compound 0.01581 µM
  relative viability: 0.666
[3]; first compound 0.05 µM
  relative viability: 0.717
[3]; first compound 0.1581 µM
  relative viability: 0.713
[3]; first compound 0.5 µM
  relative viability: 0.816
[4]; first compound 0.005 µM
  relative viability: 0.783
[4]; first compound 0.01581 µM
  relative viability: 0.806
[4]; first compound 0.05 µM
  relative viability: 0.858
[4]; first compound 0.1581 µM
  relative viability: 0.871
[4]; first compound 0.5 µM
  relative viability: 0.733
[5]; first compound 0.005 µM
  relative viability: 0.934
[5]; first compound 0.01581 µM
  relative viability: 0.941
[5]; first compound 0.05 µM
  relative viability: 0.981
[5]; first compound 0.1581 µM
  relative viability: 0.933
[5]; first compound 0.5 µM
  relative viability: 1
[6]; first compound 0.005 µM
  relative viability: 1.08
[6]; first compound 0.01581 µM
  relative viability: 1.01
[6]; first compound 0.05 µM
  relative viability: 1.06
[6]; first compound 0.5 µM
  relative viability: 0.997
[7]; first compound 0.005 µM
  relative viability: 0.716
[7]; first compound 0.01581 µM
  relative viability: 0.887
[7]; first compound 0.05 µM
  relative viability: 0.676
[7]; first compound 0.1581 µM
  relative viability: 0.745
[7]; first compound 0.5 µM
  relative viability: 0.783
[8]; first compound 0.005 µM
  relative viability: 1.1
[8]; first compound 0.01581 µM
  relative viability: 1.04
[8]; first compound 0.05 µM
  relative viability: 1
[8]; first compound 0.1581 µM
  relative viability: 1.19
[8]; first compound 0.5 µM
  relative viability: 1.06
[9]; first compound 0.005 µM
  relative viability: 0.929
[9]; first compound 0.01581 µM
  relative viability: 0.988
[9]; first compound 0.05 µM
  relative viability: 0.87
[9]; first compound 0.1581 µM
  relative viability: 0.949
[9]; first compound 0.5 µM
  relative viability: 0.963
[10]; first compound 0.005 µM
  relative viability: 1.14
[10]; first compound 0.01581 µM
  relative viability: 1.2
[10]; first compound 0.05 µM
  relative viability: 1.29
[10]; first compound 0.1581 µM
  relative viability: 1.1
[10]; first compound 0.5 µM
  relative viability: 1.21
[11]; first compound 0.005 µM
  relative viability: 0.53
[11]; first compound 0.01581 µM
  relative viability: 0.492
[11]; first compound 0.05 µM
  relative viability: 0.437
[11]; first compound 0.1581 µM
  relative viability: 0.415
[11]; first compound 0.5 µM
  relative viability: 0.451
[12]; first compound 0.005 µM
  relative viability: 0.945
[12]; first compound 0.01581 µM
  relative viability: 0.996
[12]; first compound 0.05 µM
  relative viability: 0.943
[12]; first compound 0.1581 µM
  relative viability: 0.89
[12]; first compound 0.5 µM
  relative viability: 0.897
[13]; first compound 0.005 µM
  relative viability: 0.475
[13]; first compound 0.01581 µM
  relative viability: 0.57
[13]; first compound 0.05 µM
  relative viability: 0.712
[13]; first compound 0.1581 µM
  relative viability: 0.516
[13]; first compound 0.5 µM
  relative viability: 0.606
[14]; first compound 0.005 µM
  relative viability: 0.504
[14]; first compound 0.01581 µM
  relative viability: 0.683
[14]; first compound 0.05 µM
  relative viability: 0.697
[14]; first compound 0.1581 µM
  relative viability: 0.569
[14]; first compound 0.5 µM
  relative viability: 0.868
[15]; first compound 0.005 µM
  relative viability: 0.517
[15]; first compound 0.01581 µM
  relative viability: 0.506
[15]; first compound 0.05 µM
  relative viability: 0.581
[15]; first compound 0.5 µM
  relative viability: 0.534
[16]; first compound 0.005 µM
  relative viability: 0.99
[16]; first compound 0.01581 µM
  relative viability: 1.1
[16]; first compound 0.05 µM
  relative viability: 1.26
[16]; first compound 0.1581 µM
  relative viability: 1.09
[16]; first compound 0.5 µM
  relative viability: 0.827
[17]; first compound 0.005 µM
  relative viability: 0.903
[17]; first compound 0.01581 µM
  relative viability: 0.921
[17]; first compound 0.05 µM
  relative viability: 1
[17]; first compound 0.1581 µM
  relative viability: 1.01
[17]; first compound 0.5 µM
  relative viability: 0.915
[18]; first compound 0.005 µM
  relative viability: 0.968
[18]; first compound 0.01581 µM
  relative viability: 0.918
[18]; first compound 0.05 µM
  relative viability: 1.05
[18]; first compound 0.1581 µM
  relative viability: 1.02
[18]; first compound 0.5 µM
  relative viability: 0.96
[19]; first compound 0.005 µM
  relative viability: 0.928
[19]; first compound 0.01581 µM
  relative viability: 0.922
[19]; first compound 0.05 µM
  relative viability: 0.926
[19]; first compound 0.1581 µM
  relative viability: 1.04
[19]; first compound 0.5 µM
  relative viability: 0.81
[20]; first compound 0.005 µM
  relative viability: 0.828
[20]; first compound 0.01581 µM
  relative viability: 0.855
[20]; first compound 0.05 µM
  relative viability: 0.901
[20]; first compound 0.1581 µM
  relative viability: 0.92
[20]; first compound 0.5 µM
  relative viability: 0.88
